The results in this text go back to US20260250318A1, “COMPOSITIONS AND METHODS FOR CROSSING THE BLOOD BRAIN BARRIER” (VOYAGER THERAPEUTICS, INC., priority 2022, published 2026).

This assay deals with brain. Briefly: Maturation of TTM-001 capsid, NGS enrichment in brain of CD-1 Outbred mice. Particulars: NGS fold-enrichment of TTM-001 matured AAV capsid variants in the brain of CD-1 Outbred mice; intravenous 1.0×10^12 VG/dose; 14 days in life; RNA; relative to non-matured TTM-001 control. The assay is classed as in vivo. An excerpt:
This Example describes maturation of the TTM-001 (SEQ ID NO: 981 (amino acid) and 983 (DNA), comprising SEQ ID NO: 941) and TTM-002 (SEQ ID NO: 982 (amino acid) and 984 (DNA), comprising SEQ ID NO: 2) capsid variants to further enhance their transduction and biodistribution in the central nervous system and evolve the AAV capsid variants to provide further cross-species compatibility. Two approaches were used to mature the TTM-001 and TTM-002 capsid sequences in order to randomize and mutate within and around the peptide insert comprised within loop IV of the capsid variant. […] In the first maturation approach, sets of three contiguous amino acids were randomized across the mutagenesis region in the TTM-001 and TTM-002 sequences, which spanned from position 450 to position 466, numbered according to SEQ ID NO: 981 and 982. In the second maturation approach, mutagenic primers were used to introduce point mutations at a low frequency, scattered across the mutagenesis region in the TTM-001 and TTM-002 sequences ranging from position 449 to position 466, numbered according to SEQ ID NO: 981 and 982. AAV capsid variants arising from each maturation approach for TTM-001 were pooled together and AAV capsid variants arising from each maturation approach for TTM-002 were also pooled together, for subsequent testing and characterization in mice.
The library of pooled matured AAV capsid variants generated from TTM-001 or library of pooled matured AAV capsid variants generated from the TTM-002 matured AAV capsid variant each were intravenously injected into the tail vein of three female CD-1 Outbred mice (Charles River) at a dose of 1.0×10^12 VG/dose. After 14-days in life, the brains of the mice were isolated and RNA was extracted. Following RNA recovery and RT-PCR amplification, a systematic NGS enrichment analysis was performed to calculate the fold enrichment ratio relative to the corresponding TTM-001 or TTM-002 control, and the peptides comprised within the variants were identified. The data for the TTM-001 matured capsid variants is provided in Table 13 and the data for the TTM-002 matured capsid variants is provided in Table 14.
With KTINGSMSPHRKAQNQQT, the “Fold enrichment over TTM-001” value amounted to 2.251 fold. As for KTINGSGSPHLLWQNQQT, the “Fold enrichment over TTM-001” value stood at 3.855 fold.

In the case of “KTINGSRSPHTRAQNQQT (peptide inserted in AAV capsid)”, the “Fold enrichment over TTM-001” value came out at 3.989 fold. For KTINGRPSPHIKAQNQQT, the “Fold enrichment over TTM-001” value is reported as 2.155 fold. In the case of “KTINGSTSPHRRAQNQQT (peptide inserted in AAV capsid)”, the “Fold enrichment over TTM-001” value was determined as 3.089 fold. To KTINGSGSPHSKSFRQQT belongs 3.426 fold; to KTINGSGSPHSRRSNQQT, 2.851 fold. Take KTINGSCSPHRKAQNQQT: the “Fold enrichment over TTM-001” value was found to be 4.801 fold.

Turning to “KTINGSRSPHLRAQNQQT (peptide inserted in AAV capsid)”, the “Fold enrichment over TTM-001” value turned out to be 3.410 fold. Consider KTINGSGSPHTLWQNQQT, for which the “Fold enrichment over TTM-001” value is listed as 2.168 fold. For KTINGSGSPHMYLQNQQT, the “Fold enrichment over TTM-001” value stood at 3.061 fold. With KTINGSGSPHSKGRIQQT, the “Fold enrichment over TTM-001” value amounted to 2.061 fold.

As to KEVGGSGSPHSKAQNQQT, the “Fold enrichment over TTM-001” value was found to be 2.358 fold.

Turning to KTINGSGSPHSHWQNQQT, the “Fold enrichment over TTM-001” value is reported as 2.676 fold. As for KTINGRQSPHTKAQNQQT, the “Fold enrichment over TTM-001” value came to 2.294 fold.

On to KTINGSGSPHSKAQSYRT, for which the “Fold enrichment over TTM-001” value turned out to be 2.088 fold. As for KEVAGSGSPHSKAQNQQT, the figure is 2.250 fold.

In the case of KTINGSGSPHSYSRNQQT, the “Fold enrichment over TTM-001” value is recorded as 2.196 fold.

On to KTINGSGSPHSKRSNQQT, for which the “Fold enrichment over TTM-001” value stood at 2.886 fold.

For KTINGSGSPHSKRLRQQT, the “Fold enrichment over TTM-001” value is reported as 5.034 fold. In the case of KTINGSGSPHSKLWLQQT, the “Fold enrichment over TTM-001” value is 3.199 fold. Turning to KTINGSGSPHSIWQNQQT, the “Fold enrichment over TTM-001” value is given as 5.883 fold. With KTRKSSGSPHSKAQNQQT, the “Fold enrichment over TTM-001” value is given as 2.065 fold. Take “KTINGSSSPHLWAQNQQT (peptide inserted in AAV capsid)”: the “Fold enrichment over TTM-001” value was 2.605 fold.

As for KTTHCSGSPHSKAQNQQT, the “Fold enrichment over TTM-001” value stood at 2.672 fold. As for KTINGSGSPHSFRLNQQT, the “Fold enrichment over TTM-001” value amounted to 2.158 fold. Regarding KTINGSGSPHSKAQCLFT, the “Fold enrichment over TTM-001” value worked out at 2.421 fold.

As to KTINGSGSPHSLTWNQQT, the “Fold enrichment over TTM-001” value came to 2.698 fold.

Turning to KTINGSGSPHSKRLTQQT, the “Fold enrichment over TTM-001” value worked out at 2.363 fold.

On to KTINGSGSPHLKRQNQQT, for which the “Fold enrichment over TTM-001” value is 2.564 fold. As to KTINGSGSPHSKRVPQQT, the “Fold enrichment over TTM-001” value is 3.048 fold. In the case of KTINGSGSPHSKSNKQQT, the “Fold enrichment over TTM-001” value is recorded as 2.006 fold. With KTINGSGSPHSYVRNQQT, the “Fold enrichment over TTM-001” value is given as 2.339 fold. For the sequence KTINGSGSPHPFLQNQQT, the “Fold enrichment over TTM-001” value was found to be 2.916 fold. Consider KTINGSGSPHSKARPYQT, for which the “Fold enrichment over TTM-001” value is listed as 3.050 fold.

As for KTINGSGSPHSKWTLQQT, the “Fold enrichment over TTM-001” value is reported as 2.039 fold. To KTINGSGSPHSKSRHQQT belongs 2.685 fold; to KTINGSGSPHRFRQNQQT, 3.698 fold; to KTINGSGSPHSKAWILQT, 2.004 fold. To KTINGRKSPHSKAQNQQT belongs 2.985 fold. To KTINGSGSPHLNWQNQQT belongs 3.112 fold; to KTINGSISPHFVAQNQQT, 2.006 fold. As to KTINGSGSPHSKTCLQQT, the “Fold enrichment over TTM-001” value is reported as 3.717 fold. As for KTINGSGSPHSKNLRQQT, the “Fold enrichment over TTM-001” value worked out at 2.022 fold. As for KTINGSGSPHSKAQYCLT, the figure is 2.628 fold. For the sequence KTINGSGSPHSKAGRGQT, the “Fold enrichment over TTM-001” value is listed as 2.058 fold.

For KTINGSGSPHSRRVNQQT, the “Fold enrichment over TTM-001” value was 2.676 fold. For KTINGSMSPHRRAQNQQT, the “Fold enrichment over TTM-001” value was found to be 2.028 fold.

For “KTINGSTSPHLFAQNQQT (peptide inserted in AAV capsid)”, the “Fold enrichment over TTM-001” value amounted to 2.041 fold. Regarding KTINGRLSPHFKAQNQQT, the “Fold enrichment over TTM-001” value was determined as 2.097 fold. Take “KTINGSVSPHRRAQNQQT (peptide inserted in AAV capsid)”: the “Fold enrichment over TTM-001” value came out at 2.186 fold.

As to KGLVGSGSPHSKAQNQQT, the “Fold enrichment over TTM-001” value turned out to be 2.412 fold. For KTINGSGSPHELPQNQQT (KTINGSGSPHFLPQNQQT), the “Fold enrichment over TTM-001” value is 2.123 fold.

In the case of KTINGSGSPHSRVRNQQT, the “Fold enrichment over TTM-001” value is recorded as 2.540 fold.

KTINGSGSPHSKAQNSRR: the “Fold enrichment over TTM-001” value came to 3.168 fold.

As for KTINGSGSPHSTRQNQQT, the “Fold enrichment over TTM-001” value is given as 2.212 fold. As to KPLRGSGSPHSKAQNQQT, the “Fold enrichment over TTM-001” value amounted to 2.486 fold. Take “KTINGSRSPHLFAQNQQT (peptide inserted in AAV capsid)”: the “Fold enrichment over TTM-001” value is on record as 3.601 fold. Consider KTINGKLSPHMKAQNQQT, for which the “Fold enrichment over TTM-001” value amounted to 2.449 fold. Consider KTINGSASPHVFAQNQQT, for which the “Fold enrichment over TTM-001” value is 2.186 fold. For the sequence KTINGSGSPHSFLVNQQT, the “Fold enrichment over TTM-001” value turned out to be 2.624 fold. As for KTLRRSGSPHSKAQNQQT, the figure is 2.117 fold; as for KTINGSGSPHSKARLAQT, 2.007 fold; as for KTINGSLSPHCLAQNQQT, 2.577 fold. To KTINGSGSPHSLSWNQQT belongs 2.588 fold; to KTINGSGSPHSKTLRQQT, 3.788 fold; to KTINGSGSPHLSCQNQQT, 2.277 fold.

Take KTINGSGSPHSKTCSQQT: the “Fold enrichment over TTM-001” value came to 2.430 fold. As to “KTINGSSSPHCTAQNQQT (peptide inserted in AAV capsid)”, the “Fold enrichment over TTM-001” value is on record as 5.607 fold.

Turning to KTINGSGSPHSKRRLQQT, the “Fold enrichment over TTM-001” value is on record as 4.451 fold. As for KTINGSGSPHSKMRAQQT, the “Fold enrichment over TTM-001” value worked out at 3.382 fold. As for KTINGSGSPHSMLYNQQT, the figure is 2.808 fold.

Turning to KTINGSGSPHSKAQLLKT, the “Fold enrichment over TTM-001” value is recorded as 2.985 fold. As for KTINGSGSPHSKPSRQQT, the “Fold enrichment over TTM-001” value worked out at 2.438 fold. On to KTINGSGSPHSKIRLQQT, for which the “Fold enrichment over TTM-001” value was 2.348 fold. Regarding KTINGSGSPHSRKQNQQT, the “Fold enrichment over TTM-001” value is recorded as 2.162 fold.

As for KTINGSGSPHSKAQNKRS, the “Fold enrichment over TTM-001” value is given as 2.214 fold.

Turning to KTINGSGSPHSKKGGQQT, the “Fold enrichment over TTM-001” value turned out to be 2.009 fold. Turning to KTINGSGSPHSKAQLRIT, the “Fold enrichment over TTM-001” value was 2.179 fold. Regarding KTINGSGSPHSKLSKQQT, the “Fold enrichment over TTM-001” value is 2.482 fold.

With KTINGSGSPHSKRLPQQT, the “Fold enrichment over TTM-001” value stood at 2.279 fold. Turning to KTINGSGSPHSKARLRQT, the “Fold enrichment over TTM-001” value is given as 4.155 fold. Take KTINGSGSPHRWAQNQQT: the “Fold enrichment over TTM-001” value is recorded as 2.350 fold. Take KTINGSGSPHSKARITQT: the “Fold enrichment over TTM-001” value is recorded as 2.525 fold. As for KTINGSGSPHCLAQNQQT, the figure is 4.847 fold. As for KTINGSGSPHSKIGRQQT, the figure is 2.739 fold. As for KTINGSGSPHSKAQFSLT, the figure is 2.000 fold. For the sequence KTINGSGSPHSKAQRRQT, the “Fold enrichment over TTM-001” value was found to be 2.479 fold. As for KTINGSGSPHSKCLLQQT, the figure is 3.374 fold; as for KTINGRLSPHRKAQNQQT, 2.238 fold; as for KTINGSGSPHRLRQNQQT, 2.998 fold. Take KTINGSGSPHSKAQTTRT: the “Fold enrichment over TTM-001” value was 2.385 fold. On to KTINGSGSPHSKAQLSKT, for which the “Fold enrichment over TTM-001” value worked out at 2.035 fold. As for KTINGSGSPHSKASCRQT, the figure is 2.840 fold; as for KTINGSGSPHSKAQNRMR, 2.804 fold; as for KTINGSGSPHSKASRQQT, 2.197 fold. In the case of KTINGSGSPHTRRQNQQT, the “Fold enrichment over TTM-001” value amounted to 3.350 fold. On to KTINGSGSPHSKGVRQQT, for which the “Fold enrichment over TTM-001” value amounted to 2.115 fold.

With KGINGSGSPHGKAQNQQT, the “Fold enrichment over TTM-001” value came out at 2.084 fold. With KTINGSGSPHSSCQNQQT, the “Fold enrichment over TTM-001” value stood at 2.365 fold.
